Source: US20160038468A1 (priority 2013, published 2016)
Values after ≈ are worked out from the molar mass of the structure shown. Read-outs that look alike come from different tables or passages of the source.

Tests used:
[1] = tested on: B. fragilis, ATCC 25285; details: agar dilution testing, from CLSI Table 5; cited from earlier work
[2] = tested on: Finegoldia magna; test: Agar dilution MIC (CLSI), Finegoldia magna vaginal isolates; type: cell-based; details: for MIC: read-out: Minimal Inhibitory Concentration (MIC)
[3] = tested on: Prevotella timonensis; test: Agar dilution MIC (CLSI), Prevotella timonensis vaginal isolates; type: cell-based; details: for MIC: read-out: Minimal Inhibitory Concentration (MIC)
[4] = tested on: Mobiluncus spp; test: Agar dilution MIC (CLSI), Mobiluncus spp vaginal isolate; type: cell-based; details: read-out: Minimal Inhibitory Concentration (MIC)
[5] = tested on: Megasphaera-like bacteria; test: Agar dilution MIC (CLSI), Megasphaera-like bacteria vaginal isolates; type: cell-based; details: for MIC: read-out: Minimal Inhibitory Concentration (MIC)
[6] = tested on: Anaerococcus tetradius; test: Agar dilution MIC (CLSI), Anaerococcus tetradius vaginal isolates; type: cell-based; details: for MIC: read-out: Minimal Inhibitory Concentration (MIC)
[7] = number (%) of isolates, # tested 20
[8] = Hoylesella timonensis, # tested 33
[9] = Anaerococcus tetradius, # tested 21

## Cc1ncc([N+](=O)[O-])n1CCO [Metronidazole]
[1]
  Acceptable Range of MIC for control strain: 0.25 to 1 µg/mL
[2]; # tested 20
  MIC Range: 0.5 to 4 µg/mL
[2]; Finegoldia magna, isolate 301303V D
  MIC: 0.5 µg/mL (≈ 2.92 µM)
[2]; Finegoldia magna, isolate 601205V 39
  MIC: 4 µg/mL (≈ 23.4 µM)
[2]; Finegoldia magna, isolate 601214V F
  MIC: 2 µg/mL (≈ 11.7 µM)
[2]; Finegoldia magna, isolate 601275V c
  MIC: 4 µg/mL (≈ 23.4 µM)
[2]; Finegoldia magna, isolate 601276V 23
  MIC: 2 µg/mL (≈ 11.7 µM)
[2]; Finegoldia magna, isolate 601283V 14
  MIC: 2 µg/mL (≈ 11.7 µM)
[2]; Finegoldia magna, isolate 601293V 27
  MIC: 2 µg/mL (≈ 11.7 µM)
[2]; Finegoldia magna, isolate 601295V 25
  MIC: 1 µg/mL (≈ 5.84 µM)
[2]; Finegoldia magna, isolate 601298V 30
  MIC: 2 µg/mL (≈ 11.7 µM)
[2]; Finegoldia magna, isolate 601308V 24
  MIC: 2 µg/mL (≈ 11.7 µM)
[2]; Finegoldia magna, isolate 601315V 17
  MIC: 4 µg/mL (≈ 23.4 µM)
[2]; Finegoldia magna, isolate 601315V 17A
  MIC: 4 µg/mL (≈ 23.4 µM)
[2]; Finegoldia magna, isolate 601320V 24
  MIC: 4 µg/mL (≈ 23.4 µM)
[2]; Finegoldia magna, isolate 601323V K
  MIC: 0.5 µg/mL (≈ 2.92 µM)
[2]; Finegoldia magna, isolate 601330V c
  MIC: 4 µg/mL (≈ 23.4 µM)
[2]; Finegoldia magna, isolate 601335V c1
  MIC: 1 µg/mL (≈ 5.84 µM)
[2]; Finegoldia magna, isolate 601340V 27
  MIC: 4 µg/mL (≈ 23.4 µM)
[2]; Finegoldia magna, isolate 601359V c
  MIC: 4 µg/mL (≈ 23.4 µM)
[2]; Finegoldia magna, isolate 601363V 6
  MIC: 1 µg/mL (≈ 5.84 µM)
[2]; Finegoldia magna, isolate 601367V c
  MIC: 4 µg/mL (≈ 23.4 µM)
[2]; Finegoldia magna, # tested 20
  MIC50: 2 µg/mL (≈ 11.7 µM)
  MIC90: 4 µg/mL (≈ 23.4 µM)
[2]; [7]
  Intermediate: 0 µg/mL
  Susceptible: 20 (100) μg/ml
[3]; Hoylesella timonensis, isolate 301212 10
  MIC: 2 µg/mL (≈ 11.7 µM)
[3]; Hoylesella timonensis, isolate 601080 5
  MIC: 2 µg/mL (≈ 11.7 µM)
[3]; Hoylesella timonensis, isolate 601088 15
  MIC: 2 µg/mL (≈ 11.7 µM)
[3]; Hoylesella timonensis, isolate 601093 24
  MIC: 2 µg/mL (≈ 11.7 µM)
[3]; Hoylesella timonensis, isolate 601097 S
  MIC: 2 µg/mL (≈ 11.7 µM)
[3]; Hoylesella timonensis, isolate 601098 B
  MIC: 2 µg/mL (≈ 11.7 µM)
[3]; Hoylesella timonensis, isolate 601157 19
  MIC: 2 µg/mL (≈ 11.7 µM)
[3]; Hoylesella timonensis, isolate 601167 13
  MIC: 2 µg/mL (≈ 11.7 µM)
[3]; Hoylesella timonensis, isolate 601170 13
  MIC: 2 µg/mL (≈ 11.7 µM)
[3]; Hoylesella timonensis, isolate 601175 J
  MIC: 2 µg/mL (≈ 11.7 µM)
[3]; Hoylesella timonensis, isolate 601178 19
  MIC: 2 µg/mL (≈ 11.7 µM)
[3]; Hoylesella timonensis, isolate 601194 9B
  MIC: 2 µg/mL (≈ 11.7 µM)
[3]; Hoylesella timonensis, isolate 601214 A
  MIC: 4 µg/mL (≈ 23.4 µM)
[3]; Hoylesella timonensis, isolate 601226 C
  MIC: 2 µg/mL (≈ 11.7 µM)
[3]; Hoylesella timonensis, isolate 601234 B
  MIC: 2 µg/mL (≈ 11.7 µM)
[3]; Hoylesella timonensis, isolate 601252 B
  MIC: 4 µg/mL (≈ 23.4 µM)
[3]; Hoylesella timonensis, isolate 601255 17
  MIC: 2 µg/mL (≈ 11.7 µM)
[3]; Hoylesella timonensis, isolate 601266 18
  MIC: 2 µg/mL (≈ 11.7 µM)
[3]; Hoylesella timonensis, isolate 601278 12
  MIC: > 128 µg/mL
[3]; Hoylesella timonensis, isolate 601281 22
  MIC: 2 µg/mL (≈ 11.7 µM)
[3]; Hoylesella timonensis, isolate 601287 H
  MIC: 2 µg/mL (≈ 11.7 µM)
[3]; Hoylesella timonensis, isolate 601293 13
  MIC: 4 µg/mL (≈ 23.4 µM)
[3]; Hoylesella timonensis, isolate 601367 E
  MIC: 4 µg/mL (≈ 23.4 µM)
[3]; Hoylesella timonensis, isolate 601370 13
  MIC: 4 µg/mL (≈ 23.4 µM)
[3]; Hoylesella timonensis, isolate 601388 S
  MIC: 4 µg/mL (≈ 23.4 µM)
[3]; Hoylesella timonensis, isolate 601401 J
  MIC: 2 µg/mL (≈ 11.7 µM)
[3]; Hoylesella timonensis, isolate 601411 S
  MIC: 4 µg/mL (≈ 23.4 µM)
[3]; Hoylesella timonensis, isolate 601414 O
  MIC: 4 µg/mL (≈ 23.4 µM)
[3]; Hoylesella timonensis, isolate 601422 39
  MIC: 2 µg/mL (≈ 11.7 µM)
[3]; Hoylesella timonensis, isolate 601429 11
  MIC: 2 µg/mL (≈ 11.7 µM)
[3]; Hoylesella timonensis, isolate 601459 21
  MIC: 2 µg/mL (≈ 11.7 µM)
[3]; [8]
  MIC50: 2 µg/mL (≈ 11.7 µM)
  MIC90: 4 µg/mL (≈ 23.4 µM)
[3]; MIC >[…], 33 samples
  Number of strains with indicated MIC: 1
[3]; number (%) of isolates, # tested 33, resistance: rifaximin >32, metronidazole >32, clindamycin >8 μg/ml
  Resistant: 1 (3) μg/ml
[4]
  MIC: 0.03 µg/mL (≈ 0.175 µM)
[5]; 427510 h, isolate 427507 H
  MIC: 0.25 µg/mL (≈ 1.46 µM)
[5]; # tested 25
  MIC50: 0.25 µg/mL (≈ 1.46 µM)
  MIC90: 0.25 µg/mL (≈ 1.46 µM)
[5]; isolate 426749 T
  MIC: 0.25 µg/mL (≈ 1.46 µM)
[5]; isolate 426766 Q
  MIC: 0.25 µg/mL (≈ 1.46 µM)
[5]; isolate 426788 8a
  MIC: 0.25 µg/mL (≈ 1.46 µM)
[5]; isolate 426788 C
  MIC: 0.25 µg/mL (≈ 1.46 µM)
[5]; isolate 427522 8
  MIC: 0.25 µg/mL (≈ 1.46 µM)
[5]; isolate 600770 O
  MIC: 0.25 µg/mL (≈ 1.46 µM)
[5]; isolate 600790 N
  MIC: 0.25 µg/mL (≈ 1.46 µM)
[5]; isolate 600831 9
  MIC: 0.25 µg/mL (≈ 1.46 µM)
[5]; isolate 600837 18
  MIC: 0.25 µg/mL (≈ 1.46 µM)
[5]; isolate 600861 P
  MIC: 0.25 µg/mL (≈ 1.46 µM)
[5]; isolate 602236 E3
  MIC: 50.2 µg/mL (≈ 294 µM)
[5]; isolate 602241 D
  MIC: 0.25 µg/mL (≈ 1.46 µM)
[5]; isolate 602241 F
  MIC: 0.25 µg/mL (≈ 1.46 µM)
[5]; isolate 602270 A
  MIC: 0.25 µg/mL (≈ 1.46 µM)
[5]; isolate 602282 I
  MIC: 0.25 µg/mL (≈ 1.46 µM)
[5]; isolate 602302 22
  MIC: 0.25 µg/mL (≈ 1.46 µM)
[5]; isolate 602305 I
  MIC: 0.25 µg/mL (≈ 1.46 µM)
[5]; isolate 602324 8
  MIC: 0.25 µg/mL (≈ 1.46 µM)
[5]; isolate 602672 12A
  MIC: 0.25 µg/mL (≈ 1.46 µM)
[6]; Anaerococcus tetradius, isolate 601103V 21
  MIC: 1 µg/mL (≈ 5.84 µM)
[6]; Anaerococcus tetradius, isolate 601175V I
  MIC: 1 µg/mL (≈ 5.84 µM)
[6]; Anaerococcus tetradius, isolate 601202V 11
  MIC: 1 µg/mL (≈ 5.84 µM)
[6]; Anaerococcus tetradius, isolate 601212V 14
  MIC: 1 µg/mL (≈ 5.84 µM)
[6]; Anaerococcus tetradius, isolate 601221V 12
  MIC: 128 µg/mL (≈ 748 µM)
[6]; Anaerococcus tetradius, isolate 601242V 17
  MIC: 1 µg/mL (≈ 5.84 µM)
[6]; Anaerococcus tetradius, isolate 601256V 9
  MIC: 1 µg/mL (≈ 5.84 µM)
[6]; Anaerococcus tetradius, isolate 601287V V
  MIC: 1 µg/mL (≈ 5.84 µM)
[6]; Anaerococcus tetradius, isolate 601305V J
  MIC: 1 µg/mL (≈ 5.84 µM)
[6]; Anaerococcus tetradius, isolate 601326V H
  MIC: 1 µg/mL (≈ 5.84 µM)
[6]; Anaerococcus tetradius, isolate 601340V 25
  MIC: 1 µg/mL (≈ 5.84 µM)
[6]; Anaerococcus tetradius, isolate 601342V N
  MIC: 1 µg/mL (≈ 5.84 µM)
[6]; Anaerococcus tetradius, isolate 601368V 42
  MIC: 1 µg/mL (≈ 5.84 µM)
[6]; Anaerococcus tetradius, isolate 601369V 12
  MIC: 1 µg/mL (≈ 5.84 µM)
[6]; Anaerococcus tetradius, isolate 601379V 25
  MIC: 1 µg/mL (≈ 5.84 µM)
[6]; Anaerococcus tetradius, isolate 601401V T
  MIC: 1 µg/mL (≈ 5.84 µM)
[6]; Anaerococcus tetradius, isolate 601429V 15
  MIC: 1 µg/mL (≈ 5.84 µM)
[6]; Anaerococcus tetradius, isolate 601450V 22
  MIC: 1 µg/mL (≈ 5.84 µM)
[6]; Anaerococcus tetradius, isolate 602375V 22
  MIC: 1 µg/mL (≈ 5.84 µM)
[6]; [9]
  MIC50: 1 µg/mL (≈ 5.84 µM)
  MIC90: 1 µg/mL (≈ 5.84 µM)
[6]; MIC […], 21 samples
  Number of strains with indicated MIC: 1
